#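 These data come from cells grown in 96-well plates and exposed to compound for 48 hours at five concentrations. TGI: concentration producing complete growth inhibition.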
# Tests used:
# Assay in all cases: NCI anticancer screen, dose series, 48 h
# [1] = test system: CCRF-CEM leukemia
# [2] = test system: A549 NSCLC
# [3] = test system: UO-31 renal
# [4] = test system: OVCAR-5 ovarian
# [5] = test system: SK-OV-3 ovarian
# [6] = test system: OVCAR-3 ovarian
# [7] = test system: M14 melanoma
# [8] = test system: SNB-19 CNS
# [9] = test system: HCT-116 colon
# [10] = test system: SNB-75 CNS
# [11] = test system: MALME-3M melanoma
# [12] = test system: ACHN renal
# [13] = test system: HT29 colon
# [14] = test system: U251 CNS
# [15] = test system: TK-10 renal
# [16] = test system: BT-549 breast
# [17] = test system: DU-145 prostate
# [18] = test system: 786-0 renal
# [19] = test system: A498 renal
# [20] = test system: SF-295 CNS
# [21] = test system: NCI/ADR-RES ovarian
# [22] = test system: HCT-15 colon
# [23] = test system: NCI-H460 lung
# [24] = test system: SK-MEL-2 melanoma
# [25] = test system: MDA-N
# [26] = test system: IGROV1 ovarian
# [27] = test system: MDA-MB-435
# [28] = test system: KM12 colon
# [29] = test system: T-47D breast
# [30] = test system: EKVX NSCLC
# [31] = test system: COLO 205 colon
# [32] = test system: CAKI-1 renal
# [33] = test system: LOX IMVI melanoma
# [34] = test system: OVCAR-4 ovarian
# [35] = test system: RPMI-8226 leukemia
# [36] = test system: HL-60(TB) leukemia
# [37] = test system: MDA-MB-231 breast
# [38] = test system: SN12C renal
# [39] = test system: HOP-92 NSCLC
# [40] = test system: MOLT-4 leukemia
# [41] = test system: K-562 leukemia
# [42] = test system: HOP-62 NSCLC
# [43] = test system: SF-539 CNS
# [44] = test system: UACC-257 melanoma
# [45] = test system: NCI-H23 lung
# [46] = test system: HS 578T breast
# [47] = test system: SK-MEL-5 melanoma
# [48] = test system: SF-268 CNS
# [49] = test system: PC-3 prostate
# [50] = test system: RXF 393 renal
# [51] = test system: SK-MEL-28 melanoma
# [52] = test system: NCI-H226 lung
# [53] = test system: NCI-H522 lung
# [54] = test system: OVCAR-8 ovarian
# [55] = test system: SW-620 colon
# [56] = test system: HCC-2998 colon
# [57] = test system: SR leukemia
# [58] = test system: UACC-62 melanoma
structure (smiles),measurement,setting,value
CN1C2CCC1CN(CCOC(c1ccc(F)cc1)c1ccc(F)cc1)C2,TGI,[1],> 100 µM
same,TGI,[2],> 100 µM
same,TGI,[3],> 100 µM
same,TGI,[4],> 100 µM
same,TGI,[5],> 100 µM
same,TGI,[6],> 100 µM
same,TGI,[7],38.8 µM
same,TGI,[8],> 100 µM
same,TGI,[9],44.8 µM
same,TGI,[10],> 100 µM
same,TGI,[11],32.5 µM
same,TGI,[12],> 100 µM
same,TGI,[13],73.7 µM
same,TGI,[14],78.9 µM
same,TGI,[15],> 100 µM
same,TGI,[16],> 100 µM
same,TGI,[17],> 100 µM
same,TGI,[18],40 µM
same,TGI,[19],86 µM
same,TGI,[20],39.1 µM
same,TGI,[21],> 100 µM
same,TGI,[22],> 100 µM
same,TGI,[23],60.6 µM
same,TGI,[24],56.3 µM
same,TGI,[25],> 100 µM
same,TGI,[26],> 100 µM
same,TGI,[27],63.7 µM
same,TGI,[28],49.5 µM
same,TGI,[29],76.6 µM
same,TGI,[30],> 100 µM
same,TGI,[31],33.8 µM
same,TGI,[32],> 100 µM
same,TGI,[33],39.1 µM
same,TGI,[34],> 100 µM
same,TGI,[35],55.9 µM
same,TGI,[36],31.3 µM
same,TGI,[37],58.5 µM
same,TGI,[38],> 100 µM
same,TGI,[39],93.9 µM
same,TGI,[40],83.7 µM
same,TGI,[41],62.6 µM
same,TGI,[42],59.3 µM
same,TGI,[43],38 µM
same,TGI,[44],37.3 µM
same,TGI,[45],> 100 µM
same,TGI,[46],> 100 µM
same,TGI,[47],27.8 µM
same,TGI,[48],> 100 µM
same,TGI,[49],> 100 µM
same,TGI,[50],43 µM
same,TGI,[51],30.1 µM
same,TGI,[52],> 100 µM
same,TGI,[53],> 100 µM
same,TGI,[54],> 100 µM
same,TGI,[55],83.8 µM
COc1cc(OC)cc(-n2c(N)c(C#N)c3ccc([N+](=O)[O-])cc3c2=O)c1,TGI,[56],> 100 µM
same,TGI,[57],55.8 µM
same,TGI,[2],> 100 µM
same,TGI,[3],74.9 µM
same,TGI,[8],40.4 µM
same,TGI,[9],> 100 µM
same,TGI,[10],60.6 µM
same,TGI,[12],> 100 µM
same,TGI,[13],> 100 µM
same,TGI,[14],52.4 µM
same,TGI,[15],69 µM
same,TGI,[16],> 100 µM
same,TGI,[17],47.1 µM
same,TGI,[18],39.5 µM
same,TGI,[19],41.6 µM
same,TGI,[21],> 100 µM
same,TGI,[22],> 100 µM
same,TGI,[23],> 100 µM
same,TGI,[24],> 100 µM
same,TGI,[25],> 100 µM
same,TGI,[27],> 100 µM
same,TGI,[28],> 100 µM
same,TGI,[29],> 100 µM
same,TGI,[31],> 100 µM
same,TGI,[32],90.8 µM
same,TGI,[33],> 100 µM
same,TGI,[34],52 µM
same,TGI,[35],> 100 µM
same,TGI,[37],96.2 µM
same,TGI,[38],52.3 µM
same,TGI,[39],44.9 µM
same,TGI,[41],> 100 µM
same,TGI,[44],> 100 µM
same,TGI,[45],> 100 µM
same,TGI,[46],87.6 µM
same,TGI,[47],> 100 µM
same,TGI,[48],> 100 µM
same,TGI,[49],> 100 µM
same,TGI,[51],> 100 µM
same,TGI,[52],51.6 µM
same,TGI,[58],> 100 µM
same,TGI,[54],59.2 µM
same,TGI,[55],> 100 µM
CN(C)c1ccc(C(=O)NCCCCCCC(=O)NO)cc1,TGI,[56],1.48 µM
same,TGI,[1],> 100 µM
same,TGI,[57],> 76 µM
same,TGI,[2],10.9 µM
same,TGI,[3],5.2 µM
same,TGI,[4],1.49 µM
same,TGI,[5],1.54 µM
same,TGI,[6],4.38 µM
same,TGI,[7],> 38 µM
same,TGI,[8],> 100 µM
same,TGI,[9],0.972 µM
same,TGI,[10],2.2 µM
same,TGI,[11],> 100 µM
same,TGI,[12],5.45 µM
same,TGI,[13],> 32.5 µM
same,TGI,[14],3.64 µM
same,TGI,[15],2.7 µM
same,TGI,[16],> 28.3 µM
same,TGI,[18],> 30.4 µM
same,TGI,[19],3.07 µM
same,TGI,[20],1.82 µM
same,TGI,[21],0.728 µM
same,TGI,[22],> 38.3 µM
same,TGI,[23],5.21 µM
same,TGI,[24],0.932 µM
same,TGI,[25],0.908 µM
same,TGI,[26],2.69 µM
same,TGI,[27],3.62 µM
same,TGI,[28],35.4 µM
same,TGI,[29],1.04 µM
same,TGI,[30],> 100 µM
same,TGI,[31],0.832 µM
same,TGI,[32],2.81 µM
same,TGI,[33],1.51 µM
same,TGI,[34],> 25.3 µM
same,TGI,[36],> 63.8 µM
same,TGI,[38],2.03 µM
same,TGI,[40],> 100 µM
same,TGI,[41],> 100 µM
same,TGI,[42],98.8 µM
same,TGI,[43],> 53 µM
same,TGI,[44],2.13 µM
same,TGI,[45],3.66 µM
same,TGI,[46],> 23.8 µM
same,TGI,[47],1.39 µM
same,TGI,[48],6.26 µM
same,TGI,[50],1.73 µM
same,TGI,[51],13.9 µM
same,TGI,[52],17.8 µM
same,TGI,[53],0.739 µM
same,TGI,[58],1.37 µM
same,TGI,[54],2.46 µM
same,TGI,[55],> 21.5 µM

# Reference: PubChem BioAssay (NCI)
